The term IC50 denotes the concentration at which inhibition is half-maximal.

Active and inactive are the calls of the source. The calls are words filed in the database; no cut-off is given here.

What all share (format): functional, cell-based
The subject of one test is RAW264.7. The test can be described thus: Inhibition of LPS-induced nitric oxide production in mouse RAW264.7 cells after 20 hrs by Griess assay. The conditions noted are these: RAW264.7, 20 h. (Griess reagent forms a coloured azo dye with nitrite.)
Another test concerns A498. As to the kind of experiment: Cytotoxicity against human A498 cells up to 100 uM.
For the next test, the system named is MiaPaCa. The test can be described thus: Cytotoxicity against human MiaPaCa cells up to 100 uM.
For a further test, the system named is PANC-1. The test can be described thus: Cytotoxicity against human PANC1 cells up to 100 uM.

`Cc1ccc2c(c1)/C(=C/C(C)C)C=C2CO` gave an IC50 in the test with RAW264.7 of 23 µM. Moreover, the result with A498, in the test with MiaPaCa and in the test with PANC-1 was inactive.

For the molecule `Cc1ccc2c(c1)/C(=C/C(C)C)C[C@]2(O)CO`, in the test with RAW264.7, the IC50 came to 19 µM. Also, the result in the test on A498, in the test on MiaPaCa and in the test on PANC-1 was inactive.

(Values after ChEMBL document CHEMBL3297738, “Anmindenols A and B, inducible nitric oxide synthase inhibitors from a marine-derived Streptomyces sp” (J Nat Prod, 2014).)
